These results are taken from US20080207617A1, “Quinoline Derivatives and Quinazoline Derivatives Inhibiting Autophosphrylation of Flt3 and Medicinal Compositions Containing the Same” (KIRIN BEER KABUSHIKI KAISHA, priority 2002, published 2008).

Where a name gives a salt, the structure may show the parent alone.

One assay relates to MOLM13. Briefly: Cell growth inhibitory activities on cultured human leukemia cells MOLM-13 (WST-1). The class given is cell-based. To be noted: Homo sapiens, MOLM-13, 72 h, 3 days culture. The protocol: Pharmacological Test Example 4
Cell Growth Inhibitory Activities on Cultured Human Leukemia Cells
(§1) Human leukemia cells MOLM13 (subdivided from Hayashibara Biochemical Laboratories, Inc.) were seeded in an amount of 3×10^3 using a DMEM medium containing 10% fetal calf serum (purchased from GIBCO) in a 96-well flat bottom plate. A solution of a test compound in dimethyl sulfoxide was added to each well and was cultured in a 5% carbon dioxide incubator for 3 days. Three days after the initiation of the culture, 10 μl of a WST-1 solution in Cell Counting Kit (purchased from Wako Pure Chemical Industries, Ltd.) was added to each well for a color reaction. After proper color development, the absorbance was measured with a microplate reader under conditions of measurement wavelength 450 nm and reference wavelength 650 nm. The growth ratio for each well was determined by presuming the absorbance without the addition of the medicament to be 100% growth ratio and the absorbance of the well without seeding of the cells to be 0% growth ratio. The concentration of the test compound was varied on several levels, the cell growth ratio for each case was determined, and the concentration of the test compound necessary for inhibiting 50% of cell growth ratio (IC50) was calculated.

The test system of another assay is MV4-11. As to the kind of experiment: Cell growth inhibitory test MV4-11 (WST-1). To be noted: Homo sapiens, MV4-11, 72 h, MV4-11 cells, 3 days culture. The class given is cell-based, human. The protocol:
Pharmacological Test Example 2
Cell Growth Inhibitory Test
MV4-11 (ATCC number: CRL-9591) as human leukemia cells was seeded in an amount of 3×10^3 using a DMEM medium containing 10% fetal calf serum (purchased from GIBCO) in a 96-well flat bottom plate.
as §1, with “A” for “Human leukemia cells MOLM13 (subdivided from Hayashibara Biochemical Laboratories, Inc.) were seeded in an amount of 3×10^3 using a DMEM medium containing 10% fetal calf serum (purchased from GIBCO) in a 96-well flat bottom plate. A”

Take `COc1cc2nccc(Oc3ccc(NC(=O)NCCC(C)(C)C)c(C)c3)c2cc1OC` [Compound 2, 1-[4-(6,7-Dimethoxy-quinolin-4-yloxy)-2-methyl-phenyl]-3-(3,3-dimethyl-butyl)-urea]: the IC50 in the assay with MOLM13 stood at 770 nM; in the assay on MV4-11 it was 395 nM.

On to `COc1cc(Oc2ccnc3cc(OC)c(OC)cc23)ccc1NC(=O)NCCC(C)(C)C` [Compound 4, 1-[4-(6,7-Dimethoxy-quinolin-4-yloxy)-2-methoxy-phenyl]-3-(3,3-dimethyl-butyl)-urea], for which the IC50 came to 653 nM in the assay with MOLM13 and 889 nM with MV4-11.

On to `COc1cc2nccc(Oc3ccc(NC(=O)NCCC(C)(C)C)c(C)c3C)c2cc1OC` [Compound 7, 1-[4-(6,7-Dimethoxy-quinolin-4-yloxy)-2,3-dimethyl-phenyl]-3-(3,3-dimethyl-butyl)-urea], for which the 50% inhibitory concentration (IC50) in the assay on MOLM13 turned out to be 593 nM; in the assay with MV4-11, 558 nM. Consider `COc1cc2nccc(Oc3ccc(NC(=O)NCCC(C)(C)C)c(F)c3)c2cc1OC` [Compound 9, 1-[4-(6,7-Dimethoxy-quinolin-4-yloxy)-2-fluoro-phenyl]-3-(3,3-dimethyl-butyl)-urea hydrochloride], for which the values for the IC50 with MOLM13 and in the assay with MV4-11 were 24 nM and 8 nM, respectively. For `COc1cc2nccc(Oc3ccc(NC(=O)NCCC(C)(C)C)c(Cl)c3)c2cc1OC` [Compound 11, 1-[2-Chloro-4-(6,7-dimethoxy-quinolin-4-yloxy)-phenyl]-3-(3,3-dimethyl-butyl)-urea hydrochloride] the same measures were 416 nM and 300 nM. For `CCCCNC(=O)Nc1ccc(Oc2ccnc3cc(OC)c(OC)cc23)cc1` [Compound 19, 1-Butyl 3-[4-(6,7-dimethoxy-quinolin-4-yloxy)-phenyl]-urea], the figures for the half-inhibitory concentration (IC50) in the assay on MOLM13 and in the assay with MV4-11 were 10 nM and 6 nM, respectively.

As to `COc1cc2nccc(Oc3ccc(NC(=O)NC(C)C)cc3)c2cc1OC` [Compound 20, 1-[4-(6,7-Dimethoxy-quinolin-4-yloxy)-phenyl]-3-isopropyl-urea], the IC50 with MOLM13 worked out at 39 nM; in the assay on MV4-11, 31 nM.

On to `CCCNC(=O)Nc1ccc(Oc2ccnc3cc(OC)c(OC)cc23)cc1` [Compound 21, 1-[4-(6,7-Dimethoxy-quinolin-4-yloxy)-phenyl]-3-propyl-urea], for which the IC50 in the assay on MOLM13 amounted to 22 nM; with MV4-11, 31 nM. In the case of `CCCCCCNC(=O)Nc1ccc(Oc2ccnc3cc(OC)c(OC)cc23)cc1` [Compound 22, 1-[4-(6,7-Dimethoxy-quinolin-4-yloxy)-phenyl]-3-hexyl-urea], the 50% inhibitory concentration (IC50) in the assay with MOLM13 was determined as 7 nM; in the assay with MV4-11, 4 nM.

Regarding `CCCCCNC(=O)Nc1ccc(Oc2ccnc3cc(OC)c(OC)cc23)cc1` [Compound 23, 1-[4-(6,7-Dimethoxy-quinolin-4-yloxy)-phenyl]-3-pentyl-urea], the IC50 came to 4 nM in the assay on MOLM13 and 2 nM with MV4-11.

As for `COCCCNC(=O)Nc1ccc(Oc2ccnc3cc(OC)c(OC)cc23)cc1` [Compound 24, 1-[4-(6,7-Dimethoxy-quinolin-4-yloxy)-phenyl]-3-(3-methoxy-propyl)-urea], the IC50 with MOLM13 is 24 nM; in the assay on MV4-11, 18 nM.

Regarding `COc1cc2nccc(Oc3ccc(NC(=O)NCCN(C)C)cc3)c2cc1OC` [Compound 25, 1-[4-(6,7-Dimethoxy-quinolin-4-yloxy)-phenyl]-3-(2-dimethylamino-ethyl)-urea], the figures for the IC50 with MOLM13 and with MV4-11 were 258 nM and 66 nM, respectively. Taken in the same sequence, the figures for `CNC(=O)Nc1ccc(Oc2ccnc3cc(OC)c(OC)cc23)cc1` [Compound 27, 1-[4-(6,7-Dimethoxy-quinolin-4-yloxy)-phenyl]-3-methyl-urea] were 45 nM and 32 nM. Taken in the same sequence, the figures for `CCNC(=O)Nc1ccc(Oc2ccnc3cc(OC)c(OC)cc23)cc1` [Compound 28, 1-[4-(6,7-Dimethoxy-quinolin-4-yloxy)-phenyl]-3-ethyl-urea] were 26 nM and 19 nM. For `COc1cc2nccc(Oc3ccc(NC(=O)NCCC(C)C)cc3)c2cc1OC` [Compound 29, 1-[4-(6,7-Dimethoxy-quinolin-4-yloxy)-phenyl]-3-(3-methyl-butyl)-urea] the same measures were 3 nM and 1 nM. On to `COc1cc2nccc(Oc3ccc(NC(=O)NCC4CCCCC4)cc3)c2cc1OC` [Compound 30, 1-Cyclohexylmethyl-3-[4-(6,7-dimethoxy-quinolin-4-yloxy)-phenyl]-urea], for which the IC50 with MOLM13 was determined as 8 nM; with MV4-11 it was 4 nM. For `COc1cc2nccc(Oc3ccc(NC(=O)NCCC4CCCCC4)cc3)c2cc1OC` [Compound 31, 1-(2-Cyclohexyl-ethyl)-3-[4-(6,7-dimethoxy-quinolin-4-yloxy)-phenyl]-urea] the same measures were 2 nM and 2 nM. For `COc1cc2nccc(Oc3ccc(NC(=O)NCC(C)(C)C)cc3)c2cc1OC` [Compound 32, 1-[4-(6,7-Dimethoxy-quinolin-4-yloxy)-phenyl]-3-(2,2-dimethyl-propyl)-urea] the same measures were 314 nM and 201 nM.

Turning to `COc1cc2nccc(Oc3ccc(NC(=O)NCCCC4CCCCC4)cc3)c2cc1OC` [Compound 33, 1-(3-Cyclohexyl-propyl)-3-[4-(6,7-dimethoxy-quinolin-4-yloxy)-phenyl]-urea], the IC50 in the assay on MOLM13 stood at 4 nM; in the assay on MV4-11, 8 nM. For `COc1cc2nccc(Oc3ccc(NC(=O)NCCCC(C)C)cc3)c2cc1OC` [Compound 34, 1-[4-(6,7-Dimethoxy-quinolin-4-yloxy)-phenyl]-3-(4-methyl-pentyl)-urea] the same measures were 2 nM and under 1 nM. Taken in the same sequence, the figures for `COc1cc2nccc(Oc3ccc(NC(=O)NCCCC(C)(C)C)cc3)c2cc1OC` [Compound 35, 1-[4-(6,7-Dimethoxy-quinolin-4-yloxy)-phenyl]-3-(4,4-dimethyl-pentyl)-urea] were 3 nM and under 1 nM. Taken in the same sequence, the figures for `COc1cc2ncnc(Oc3ccc(NC(=O)NCCC(C)(C)C)cc3)c2cc1OC` [Compound 36, 1-[4-(6,7-Dimethoxy-quinazolin-4-yloxy)-phenyl]-3-(3,3-dimethyl-butyl)-urea] were 2 nM and under 1 nM. With `COc1cc2nccc(Oc3ccc(NC(=O)NCCC(C)(C)C)c([N+](=O)[O-])c3)c2cc1OC` [Compound 37, 1-[2-Nitro-4-(6,7-dimethoxy-quinolin-4-yloxy)-phenyl]-3-(3,3-dimethyl-butyl)-urea], the IC50 with MOLM13 was found to be 38 nM; with MV4-11, 47 nM. For `COc1cc2nccc(Oc3ccc(NC(=O)NCCC(C)(C)CO)cc3)c2cc1OC` [Compound 39, 1-[4-(6,7-Dimethoxy-quinolin-4-yloxy)-phenyl]-3-(4-hydroxy-3,3-dimethyl-butyl)-urea] the same measures were 3 nM and under 1 nM. In the case of `COc1cc2c(Oc3ccc(NC(=O)NCCC(C)(C)C)c(Cl)c3)ccnc2cc1OCCN1CCCCC1` [Compound 42, 1-{2-Chloro-4-[6-methoxy-7-(2-piperidin-1-yl-ethoxy)-quinolin-4-yloxy]-phenyl}-3-(3,3-dimethyl-butyl)-urea], the IC50 in the assay on MOLM13 stood at 273 nM; with MV4-11, 235 nM. As for `COc1cc2c(Oc3ccc(NC(=O)NCCC(C)(C)C)c(Cl)c3)ccnc2cc1OCCN1CCCC1` [Compound 48, 1-{2-Chloro-4-[6-methoxy-7-(2-pyrrolidin-1-yl-ethoxy)-quinolin-4-yloxy]-phenyl}-3-(3,3-dimethyl-butyl)-urea], in the assay on MV4-11, the IC50 amounted to 217 nM. Turning to `COc1cc2c(Oc3ccc(NC(=O)NCCC(C)(C)C)c(Cl)c3)ccnc2cc1OCCC1CCNCC1` [Compound 49, 1-{2-Chloro-4-[6-methoxy-7-(2-piperidin-4-yl-ethoxy)-quinolin-4-yloxy]-phenyl}-3-(3,3-dimethyl-butyl)-urea], the IC50 is 224 nM in the assay on MOLM13 and 207 nM in the assay on MV4-11. Turning to `COc1cc2c(Oc3ccc(NC(=O)NCCC(C)(C)C)c(Cl)c3)ccnc2cc1OCCC1CCCCN1` (stereo not drawn) [Compound 50, 1-{2-Chloro-4-[6-methoxy-7-(2-piperidin-2-yl-ethoxy)-quinolin-4-yloxy]-phenyl}-3-(3,3-dimethyl-butyl)-urea], the IC50 in the assay with MOLM13 came out at 243 nM; in the assay with MV4-11, 224 nM. For `COc1cc2c(Oc3ccc(NC(=O)NCCC(C)(C)C)c(Cl)c3)ccnc2cc1OCCN1CCC(C)CC1` [Compound 51, 1-(2-Chloro-4-{6-methoxy-7-[2-(4-methyl-piperidin-1-yl)-ethoxy]-quinolin-4-yloxy}-phenyl)-3-(3,3-dimethyl-butyl)-urea], the IC50 amounted to 216 nM in the assay with MOLM13 and 211 nM in the assay on MV4-11.
